“Also recorded” adds a separate entry of the source. Counter-ions that a name gives are not always drawn.
Assays:
severe dysthymia = test: Patient No. 3 treatment of severe dysthymia; assay type: in vivo, human
Description: Patient No. 3 was a divorced person experiencing chronic suicidal depression for about 15 years. For as long as the patient can remember, they have had episodic, mild-to-moderate mood swings. Approximately 15 years ago, their condition worsened and they were depressed almost daily. Their thoughts were slowed down, they felt intensely sad, guilty, worthless, confused, and desperate. Over a period of approximately two years they underwent therapy with a social worker and psychotherapy with a psychiatrist, with little positive results. No pharmaco-therapy was involved in either of these treatments. Initially, Patient No. 3 met with the inventor and identified a childhood source as a partial cause of their depression, low self-esteem and dysfunctional thinking. Although they appreciated the insights gained through the psychoanalysis/psychotherapy with the inventor, their depression persisted unabated. They were rejected by their girlfriend and became frighteningly suicidal. […] Within six months they developed a tolerance to the drug and it was increased to 100 mg per day with no effect. They stopped […]® and started bupropion 100 mg b.i.d and lithium 300 mg t.i.d. Bupropion is an aminoketone antidepressant, and lithium is a metal used to treat bipolar disorder. […] Their condition was desperate and life-threatening.

[1] = system: depression in the form of dysthymia; test: Patient No. 1 weekly blinded component study with Beck Scale and SCL-90 Scale self-rating; assay type: in vivo, human; settings: for patient-reported symptoms during week: component taken along with sertraline 125 mg qd
Method: Patient No. 1 was a person who, after a series of psychoanalysis/psychotherapy sessions, was diagnosed as suffering from depression in the form of dysthymia. Patient No. 1 experienced a chronic low mood with markedly diminished interest and pleasure in all activities including work, eating, and sexual relations.
Initially, Patient No. 1 was treated only with the known antidepressant sertraline (sold under the registered trademark ZOLOFT®). Sertraline is a selective serotonin reuptake inhibitor. Sertraline was administered in amounts from 50 to 150 mg qd (per day); the ideal dose for this patient was ultimately determined to be 125 mg qd (per day).
Independent of the sertraline treatments, the patient began taking a vitamin and mineral supplement that included a series of components. […] As such improvement was unexpected, a study of the components of the mineral preparation was undertaken. During this study, Patient No. 1 stopped taking the composite preparation.
In this study, Patient No. 1 took one component of the preparation at a time according to a schedule of one pill a day for five days, Monday through Friday. At the end of each week, they filled out two self-rating scales that are used in the diagnosis and monitoring of depression. These scales are the Beck Scale and the SCL-90 Scale, both of which are well known in the field of psychiatry and psychotherapy. Patient No. 1 continued to take sertraline at 125 mg per day. During the study, Patient No. 1 was not informed of what they were taking.
The series of events described in the above example are more fully set forth in the graphs in FIGS. 1 and 2. FIG. 1 is a bar graph displaying the scores on the Beck Scale, a self-rating scale for depression, at the end of each weekly treatment.
FIG. 2 is a bar graph of the total score on the SCL-90 Scale. The SCL-90 is composed of 90 questions. It is designed to measure symptoms of somatization, obsessive-compulsive behavior, interpersonal sensitivity, depression, anxiety, hostility, phobic anxiety, paranoid ideation, and psychoticism. It is noted that the grand total of scores on each Friday closely parallels the results of the Beck Scale.

Plasma chromium level = assay type: in vivo, human
Method: Most preferred dosage ranges of chromium are those doses sufficient to deliver from about 4.5 to about 6 μg of chromium per kilogram (kg) of body weight. This dosage range is generally several fold greater than that contained in most commercially available multi-vitamin and mineral preparations. This amount results in a plasma chromium level between 0.9 μg/liter to 2.1 μg/liter. The plasma level will vary depending on the level of exercise, i.e., the more one exercises, the more chromium is required to maintain plasma levels.
Commercially available tubes for the collection of blood can contain significant amounts of chromium. To avoid contamination, plasma levels of chromium should be determined from blood collected in heparinized or EDTA tubes.

alcohol craving = test: Patient No. 1 alcohol craving while taking chromium picolinate alone; assay type: in vivo, human
Description: During the later stages of the study described above, when Patient No. 1 was taking chromium picolinate alone, they also noticed a change in their ability to tolerate alcohol. Both of their parents were alcoholics so they guarded carefully against this outcome by drinking infrequently.
Despite this effort, […] often experienced intense cravings for alcohol. Prior to […] treatment with chromium, when […] consumed alcohol, […] could only drink it by gulping it. […] experienced rapid intoxication, unpleasant feelings, and a severe hangover the next day. […] […] also observed that […] could drink in moderation, without having a severe hangover the next day.

dysthymia = test: Patient No. 2 weekly component study with Beck Scale and SCL-90 Scale; assay type: in vivo, human
Method: Patient No. 2 was a single person. They are the child of Patient No. 1. They complained of weight gain, hyperphagia, hypersomnia, loss of interest in sex, irritability and an inability to concentrate. They stated that they had been seeing psychotherapists since they were […], but had no success in dealing with their depression. They were also diagnosed as having dysthymia.
They had taken sertraline in the amount of 50 mg qd with little help. This dosage was increased to 100 mg qd which proceeded for a period of five weeks. […] They were not as weepy and their outlook was less negative. Their interest in sex was increased. Their appetite remained the same.
Patient No. 2 then began a similar study as that described above for Patient No. 1. For the first week, they took one vitamin C tablet daily along with 100 mg of sertraline. Their depression appeared to worsen as reflected by their grand total Beck score of +12 and their SCL-90 of +4 as more fully portrayed on the FIG. 4.
For Patient No. 2, FIG. 4 presents Patient No. 2's Beck Scale total scores, and FIG. 5 presents a graph of the four subscales of somatization, obsessive-compulsive, depression, and anxiety on the SCL-90 Scale.

[2] = system: pre-menstrual syndrome (PMS); test: Patient No. 2 pre-menstrual syndrome observation; assay type: in vivo, human; settings: chromium 200 μg per day
Method: They said that they had less carbohydrate craving during the week before, that they were less irritable, that their dysphoria was relieved, and that their usual cramps were non-existent. Thus, an aspect of the present invention includes the treatment of pre-menstrual syndrome (PMS), or dysmenorrhea (problematic and/or painful menses), comprising administering chromium in a preferred dose of 200 μg per day to a patient in need thereof.

[3] = system: pre-menstrual syndrome (PMS) and major depression; test: Patient No. 4 treatment of major depression and self-rating of pre-menstrual syndrome symptoms; assay type: in vivo, human
Method: Patient No. 4 was a person who has struggled to overcome a wide variety of psychiatric symptoms, two of which are depression and pre-menstrual syndrome (PMS). After several treatments, it was determined that a combination of paroxetine 20 mg t.i.d. and lithium 300 mg t.i.d. diminished their symptoms of obsessive-compulsive disorder, depression, hypomania and PMS.
In FIGS. 6-8 the abbreviations for each symptom on the graphs may be translated as follows:
Patient No. 4's formal diagnoses were Multiple Personality Disorder, Obsessive-Compulsive Disorder, Major Depression Disorder, Alcoholism (recovering), and Pre-Menstrual Syndrome (PMS).
Set forth below in Table 1 are the research criteria set forth in the Diagnostic and Statistical Manual of Mental Disorders, Forth edition, published by the American Psychiatric Association for Pre-Menstrual Dysphoric Disorder, or Pre-Menstrual Syndrome.
They described a typical menses as follows. They were usually moderately to severely depressed for at least two days during the week before their menses. They had sudden mood swings. One moment they would be crying and the next they would be laughing wildly, or they would have sudden outbursts of anger. They were markedly tense and would fidget constantly. They tired easily and lacked energy. They could barely drag themself out of bed each morning. They craved carbohydrates and often would eat several doughnuts, whole cakes, or boxes of cookies. They slept little, and for two or three nights they would have night sweats that drenched their bed. They also experienced back cramps, bloating and pains in their joints and muscles. They had trouble concentrating and was unable to do life's simplest chores. Their PMS interfered with their ability to function. They lost interest in their favorite hobby, reading.

[4] = system: depression in the form of dysthymia; test: Patient No. 1 weekly blinded component study with Beck Scale and SCL-90 Scale self-rating; assay type: in vivo, human
[5] = system: pre-menstrual syndrome (PMS); settings: women with PMS treated with fluoxetine; cited from earlier work
[6] = sertraline only, 50 to 150 mg qd
[7] = sertraline 100 mg with one vitamin C tablet daily, first week

CN(C)CCC=C1c2ccccc2CCc2ccccc21 [ELAVIL, amitriptyline HCl]
effect on depression (severe dysthymia; 50 mg per day): helped them sleep
effect on depression (severe dysthymia; increased to 100 mg per day after tolerance): no effect

chromium picolinate
potential adverse side effect ([1]; 200 μg chromium from chromium picolinate taken late in the day): their sleep was disturbed
patient-reported symptoms during week [1]: dramatic, certain and immediate relief of symptoms
total Beck score at the end of the week ([1]; one pill of component a day for five days along with sertraline 125 mg qd (chromium 200 μg per day)): 0
plasma chromium level (Plasma chromium level; Patient No. 1, 400 μg chromium per day as chromium picolinate, sertraline discontinued): 0.9 µg/L
plasma chromium (Plasma chromium level; Patient No. 2, four days after resuming chromium picolinate 200 μg per day): 0.8 µg/L
alcohol cravings (alcohol craving): significantly diminished alcohol cravings
SCL-90 score (dysthymia; 200 μg chromium per day with sertraline 100 mg per day, second week): definite improvement
response after resuming treatment (dysthymia; chromium picolinate 200 μg per day): Within two days they felt better and had no symptoms
patient-reported symptoms during week (dysthymia; component taken along with sertraline 100 mg per day): their appetite was less
Beck Scale estimated via telephone interview (dysthymia; resumed chromium picolinate 200 μg per day, sertraline continued): +2
pre-menstrual syndrome / menses symptoms [2]: their menses was less problematic
overall response (severe dysthymia; chromium 200 μg twice daily, 400 μg per day): marked improvement
signs or symptoms of PMS ([3]; chromium 200 μg b.i.d. with paroxetine 20 mg t.i.d. and lithium 300 mg t.i.d.): completely without signs or symptoms of PMS, except for breast swelling
patient-reported condition on chromium alone ([4]; 400 μg chromium per day (200 μg b.i.d.), sertraline discontinued): their sleep was much improved; also recorded: felt the best they had felt in a decade
time to improvement after dose increase ([4]; crisis period at work, 200 μg chromium t.i.d.): Within an hour, they noticed immediate improvement

Fc1ccc([C@@H]2CCNC[C@H]2COc2ccc3c(c2)OCO3)cc1 [paroxetine]
change in severity of PMS symptoms ([3]; paroxetine): reduced the severity of their symptoms of PMS from severe to moderately severe
patient rating of PMS ([3]; paroxetine 20 mg t.i.d. and lithium 300 mg t.i.d.): moderate to severe and barely tolerable
depression ([3]; resumed lithium 300 mg t.i.d. and paroxetine 40 mg per day): their depression was refractory

[Se] [selenium]
patient-reported symptoms during week [1]: felt agitated

CC(NC(C)(C)C)C(=O)c1cccc(Cl)c1 (centres unmarked) [bupropion]
adverse effect leading to discontinuation (severe dysthymia; bupropion 100 mg b.i.d. with lithium 300 mg t.i.d.): developed involuntary muscle twitches

CNCCC(Oc1ccc(C(F)(F)F)cc1)c1ccccc1 (centres unmarked) [fluoxetine]
women suffering from PMS without a positive response [5]: ~40%

CN[C@H]1CC[C@@H](c2ccc(Cl)c(Cl)c2)c2ccccc21 [sertraline, reference compound]
total Beck score ([1]; sertraline 125 mg each day for five days with vitamin C placebo): +10
symptoms in week prior to study ([1]; sertraline 125 mg qd alone): loss of energy, disturbed sleep, and awaking tired
relief of symptoms of dysthymia [1, 6]: provided some relief of the symptoms of dysthymia
side effects [1, 6]: made the patient sluggish in their daily activities and made their thinking cloudy, or fuzzy
effect on depression (dysthymia; sertraline 50 mg qd): little help
effect on depression (dysthymia; sertraline 100 mg qd for five weeks): still symptomatic of depression, but felt better
SCL-90 score (dysthymia; [7]): +4
grand total Beck score (dysthymia; [7]): +12

[Cr] [chromium]
time to relief of symptoms (severe dysthymia; chromium picolinate 200 μg b.i.d. with sertraline 100 mg qd): relief of symptoms within four to five days

From patent publication US20020032182A1, “Method of treating hypersomnia sleep disturbance or insomnia sleep disturbance that is secondary to another condition” (priority 1997, published 2002)
